Patent publication US8808749B2, “Polymer conjugate of bioactive substance having hydroxy group” (priority 2009, dated 2014)

Tests used:
[1] = test system: Mouse colon cancer, Colon 26; experiment: Antitumor activity test for combretastatin A4 conjugate; format: in vivo; settings: for relative tumor volume based on non-treatment group: 200 mg/kg in terms of combretastatin A4, once into tail vein
Text: Mouse colon cancer, Colon 26, maintained by serial subcutaneous subculture in mice, was minced into about 2-mm cubic fragments, and the fragments were subcutaneously transplanted on the dorsal part of female CDF1 mice with a trocar. Eight days after the tumor transplantation, the polymer conjugate according to the invention (Compound 22) or a control drug (combretastatin A4 phosphate ester; CA4P, PEG-Glu-CA4 or PEG-Asp-CA4) was each administered once into the mouse tail vein in a way such that each mouse received the same dose per body weight in terms of combretastatin A4. Each compound was dissolved in a 5% aqueous glucose solution and used.
After the administration, the major axis (L mm) and the minor axis (W mm) of the tumor were measured using a caliper, and the tumor volume was calculated by the formula (L×W^2)/2.

heart muscle = experiment: Effect of combretastatin A4 conjugate on heart muscle (plasma CPK); format: in vivo, mouse; settings: for creatinine phosphokinase (CPK) in plasma, average: 200 mg/kg once into tail vein
Text: Combretastatins are known to have a side effect of causing a myocardial damage. As such, by following a change in efficacy of creatinine phosphokinase (CPK) that is released into blood when enzymes abundantly present in heart muscles or neurons are damaged, the degree of side effect of the compounds according to the invention was compared to those of known compounds.
To a non-treated female CDF1 mouse, Compound 22 as a compound of the invention and CA4P, PEG-Glu-CA4, and PEG-Asp-CA4 as a comparative compound were each administered once into the mouse tail vein. Six hours and 24 hours after the administration, three animals per each group were anesthetized with ether and blood was taken from abdominal aorta. Creatinine phosphokinase (CPK) contained in plasma was measured.

[2] = test system: Mouse colon cancer, Colon 26; experiment: Antitumor activity test for docetaxel conjugate; format: in vivo; settings: 100 mg/kg in terms of docetaxel, once into tail vein
Text: Mouse colon cancer, Colon 26, maintained by serial subcutaneous subculture in mice, was minced into about 2-mm cubic fragments, and the fragments were subcutaneously transplanted on the dorsal part of female CDF1 mice with a trocar. Eight days after the tumor transplantation, the polymer conjugate according to the invention (Compound 30) or a control drug (docetaxel; DTX or PEG-Asp-DTX) was each administered once into the mouse tail vein in a way such that each mouse received the same dose per body weight in terms of docetaxel. Docetaxel was dissolved in anhydrous ethanol and cremophor (manufactured by Sigma Corporation), and diluted with physiological saline at the time of use. Other compounds were dissolved in a 5% aqueous glucose solution for injection and used. After the administration, the major axis (L mm) and the minor axis (W mm) of the tumor were measured using a caliper, and the tumor volume was calculated by the formula (L×W^2)/2.

Molecule	relative tumor volume based on non-treatment group ([1]; day 0 after administration)	relative tumor volume based on non-treatment group ([1]; day 2 after administration)	relative tumor volume based on non-treatment group ([1]; day 4 after administration)	relative tumor volume based on non-treatment group ([1]; day 6 after administration)	relative tumor volume based on non-treatment group ([1]; day 8 after administration)	antitumor activity (in words) ([1]; dose of 200 mg/kg)	creatinine phosphokinase (CPK) in plasma, average (heart muscle; 6 hours after administration)	creatinine phosphokinase (CPK) in plasma, average (heart muscle; 24 hours after administration)	CPK change (in words) (heart muscle; dose of 200 mg/kg)	relative tumor volume based on non-treatment group ([2]; day 0 after administration)	relative tumor volume based on non-treatment group ([2]; day 3 after administration)	relative tumor volume based on non-treatment group ([2]; day 5 after administration)	relative tumor volume based on non-treatment group ([2]; day 9 after administration)	relative tumor volume based on non-treatment group ([2]; day 12 after administration)
COc1ccc(/C=C\c2cc(OC)c(OC)c(OC)c2)cc1OP(=O)(O)O [CA4P, combretastatin A4 phosphate ester]	1.00	0.72	0.82	0.80	0.80	weak antitumor activity	400-500 IU/L	≦200 IU/L	CPK increase was significant					
docetaxel [DTX]										1.00	0.50	0.32	0.37	0.35
